In patent US10028941B2, “Composition for the management of nausea and vomiting” (DUCHESNAY INC., priority 2013, dated 2018):
“Also recorded” adds a separate entry of the source.

Experiments:
[1] = test system: nausea and vomiting of pregnancy symptoms; test: Randomized controlled efficacy trial of Diclectin vs placebo in pregnant women: plasma levels vs PUQE score; type: in vivo, human; details: pregnant women treated with Diclectin for 14 days; FIG. 1
Experimental: A randomized controlled efficacy trial of Diclectin® vs. placebo in pregnant women was carried out as follows, with the results shown in FIG. 1.
To assess the plasma levels of Doxylamine and PLP and the severity of nausea and vomiting of pregnancy symptoms in pregnant women treated with Diclectin®.
The demographic and medical characteristics of the subjects are as described in Koren et al., Am J Obstet Gynecol 2010; 203(6):571.e1-7.
The study design is as described in Koren et al., 2010, supra. Briefly, a randomized, double-blind, multicenter placebo controlled trial studying pregnant women suffering from nausea and vomiting of pregnancy, analyzed by intention to treat. Women received Diclectin (n=131) or placebo (n=125) for 14 days. Nausea and vomiting of pregnancy symptoms were evaluated daily using the pregnancy unique quantification of emesis scale (PUQE-24, Ebrahimi et al., J Obstet Gynaecol Can. 2009 September; 31(9):803-7).

[2] = Randomized controlled bioavailability study, three-way cross over, plasma PLP after treatments A, B, C; details: for speed of increase / time of appearance of PLP in the plasma: given together with Doxylamine and Pyridoxine, R5P 40 mg, AUC 0-2 h
Experimental: The results depicted in FIGS. 2 and 3 were obtained from randomized controlled bioavailability studies in healthy women, which were carried out as follows.
To characterize the pharmacokinetic profile of Pyridoxal-5′-Phosphate (PLP) and to determine whether Riboflavin-5-phosphate (R5P), PLP or PYL in an immediate release formulation can be used to positively alter the kinetics of PLP compared to the current Diclectin® formulation (the current Diclectin® formulation is a delayed release formulation containing 10 mg Doxylamine succinate and 10 mg Pyridoxine-HCl).
Healthy female (n=12) participants between 18 and 45 years of age with a body mass index between 19 and 30 kg/m^2 were administered the treatments described below under empty stomach (fasted) conditions. Blood sampling was conducted extensively from 1 hour pre-administration until 24 hours post-administration. After a wash-out period of 21 days, dose administration and blood sampling was re-conducted as stated above. Doxylamine, Pyridoxine and Pyridoxine metabolites were measured using liquid chromatography-tandem mass spectrometry, as previously described (Nulman and Koren, Can J Clin Pharmacol Vol 16(3):e400-e406, 2009).
Three Way Cross Over Design.
Diclectin®: delayed release formulation containing 10 mg Doxylamine succinate and 10 mg Pyridoxine-HCl (PA-DR).
Immediate release: an oral solution of 20 mg Doxylamine succinate and 20 mg Pyridoxine-HCl (PA-IR).
Treatment group A: One (1) Diclectin® Tablet (current delayed release formulation of 10 mg Doxylamine and 10 mg Pyridoxine-HCl) plus an oral solution of 10 mg Doxylamine and 10 mg Pyridoxal HCl (immediate release) (PYL);
Treatment group B: One (1) Diclectin® Tablet (current delayed release formulation of 10 mg Doxylamine and 10 mg Pyridoxine-HCl) plus an oral solution of 10 mg Doxylamine and 10 mg Pyridoxal-5′-Phosphate (immediate release) (PLP);
Treatment group C: One (1) Diclectin® Tablet (current delayed release formulation of 10 mg Doxylamine and 10 mg Pyridoxine-HCl) plus an oral solution of 10 mg Doxylamine and 10 mg Pyridoxine HCl and 40 mg Riboflavin-5-phosphate (R5P) (immediate release).
Bioavailability; Tmax, Cmax and AUC0-t between each treatment. Doxylamine, and Pyridoxine and its metabolites were measured using liquid chromatography-tandem mass spectrometry, as previously described (Nulman and Koren, Can J Clin Pharmacol Vol 16 (3):e400-e406, 2009).

[3] = Another study with different doses of R5P (5, 10 or 20 mg), plasma PLP levels vs controls; type: in vivo, human
Experimental: In another study, different doses of R5P were tested: 5, 10 or 20 mg of R5P (i.e. equivalent to the formulations administered to Treatment group C above, with the exception that 5, 10 or 20 mg of R5P was used rather than 40 mg R5P; 8 healthy women for each dose), and the PLP levels were compared to those measured in control healthy women not administered with R5P (24 subjects, equivalent to Treatment group A above).

Cc1ncc(COP(=O)(O)O)c(C=O)c1O [PLP, Pyridoxal 5-phosphate]
plasma concentration vs severity of NVP (PUQE score) [1]: correlates with a reduction in the severity of NVP

CN(C)CCOC(C)(c1ccccc1)c1ccccn1 (stereo not drawn) [Doxylamine, reference compound]
plasma concentration vs severity of NVP (PUQE score) [1]: correlates with a reduction in the severity of NVP

Cc1ncc(CO)c(C=O)c1O [PYL, Pyridoxal]
speed of increase / time of appearance of PLP in the plasma [2]: did not result in such improvement

Cc1cc2nc3c(=O)[nH]c(=O)nc-3n(C[C@H](O)[C@H](O)[C@H](O)COP(=O)(O)O)c2cc1C [R5P, riboflavin-5-phosphate]
effect on PLP levels relative to controls ([3]; 5 mg R5P, 8 healthy women, controls without R5P): no significant effect
effect on PLP levels relative to controls ([3]; 10 mg R5P, 8 healthy women, controls without R5P): no significant effect
effect on pharmacokinetics of PLP relative to controls ([3]; 20 mg R5P, 8 healthy women, controls without R5P): some improvement in the pharmacokinetics of PLP
effect with 20 mg R5P compared with 40 mg R5P ([3]; 20 mg vs 40 mg R5P): lower
inter-subject variations in PLP levels ([2]; administration of R5P): less inter-subject variations
time to reach steady-state PLP levels ([2]; administration of R5P): decreased time to reach steady-state PLP levels
speed of increase / time of appearance of PLP in the plasma [2]: faster increase in the plasma level of PLP
speed of increase / time of appearance of PLP in the plasma ([2]; listed as FMN): faster time of appearance in the plasma
PLP concentration (AUC) 0-12 h compared with Diclectin (PA-DR) ([2]; healthy women, fasted, one-way ANOVA, FIG. 2): did not increase PLP levels significantly; also recorded: does not significantly affect PLP levels
